Values after ≈ are worked out from the molar mass of the structure shown.
Legend:
Bacillus anthracis = test: Antimicrobial activity against Bacillus anthracis assessed as microbial growth inhibition by CLSI-protocol based broth microdilution assay; type: functional
Staphylococcus aureus [1] = test: Antimicrobial activity against methicillin-resistant Staphylococcus aureus assessed as microbial growth inhibition by CLSI-protocol based broth microdilution assay; type: functional
Staphylococcus aureus [2] = test: Antimicrobial activity against Staphylococcus aureus assessed as microbial growth inhibition by CLSI-protocol based broth microdilution assay; type: functional
Escherichia coli = test: Antimicrobial activity against Escherichia coli assessed as microbial growth inhibition by CLSI-protocol based broth microdilution assay; type: functional
Pseudomonas aeruginosa = test: Antimicrobial activity against Pseudomonas aeruginosa assessed as microbial growth inhibition by CLSI-protocol based broth microdilution assay; type: functional
MDA-MB-231 = test: Cytotoxicty against human MDA-MB-231 cells assessed as reduction in cell viability at > 25 uM measured after 72 hrs by CellTiter-Blue cell viability assay; type: cell-based; settings: mda-mb-231, 72 h
OVCAR-3 = test: Cytotoxicty against human OVCAR-3 cells assessed as reduction in cell viability at > 25 uM measured after 72 hrs by CellTiter-Blue cell viability assay; type: cell-based; settings: ovcar-3, 72 h
MDA-MB-435 = test: Cytotoxicty against human MDA-MB-435 cells assessed as reduction in cell viability at > 25 uM measured after 72 hrs by CellTiter-Blue cell viability assay; type: cell-based; settings: mda-mb-435, 72 h

SMILES | MIC (Bacillus anthracis) | MIC (Staphylococcus aureus [1]) | MIC (Staphylococcus aureus [2]) | MIC (Escherichia coli) | MIC (Pseudomonas aeruginosa) | Activity (MDA-MB-231) | Activity (OVCAR-3) | Activity (MDA-MB-435)
CC1OC(=O)/C=C/[C@@H](O)CC[C@H](C)OC(=O)CCC1=O (stereo partly drawn) | 62.5 µg/mL (≈ 220 µM) | 125 µg/mL (≈ 440 µM) | 1 µg/mL (≈ 3.52 µM) | 125 µg/mL (≈ 440 µM) | 125 µg/mL (≈ 440 µM) | Non-Toxic | Non-Toxic | Non-Toxic
CN[C@@H]1[C@H](O[C@H]2[C@H](O[C@H]3[C@H](O)[C@@H](O)[C@H](N=C(N)N)[C@@H](O)[C@@H]3N=C(N)N)O[C@@H](C)[C@]2(O)C=O)O[C@@H](CO)[C@H](O)[C@H]1O [STREPTOMYCIN] | 0.25 µg/mL (≈ 0.43 µM) | 0.25 µg/mL (≈ 0.43 µM) | 0.25 µg/mL (≈ 0.43 µM) | 0.25 µg/mL (≈ 0.43 µM) | 1 µg/mL (≈ 1.72 µM) |  |  | 
CC(=C\C(=O)O)/C=C(\C)C[C@H](C)CCCC[C@H]1OC(=O)[C@@H]1CO [ANTIBIOTIC 1233A] | > 250 µg/mL | 125 µg/mL (≈ 385 µM) | 125 µg/mL (≈ 385 µM) | > 250 µg/mL | 125 µg/mL (≈ 385 µM) |  |  | 
CO[C@H]1/C=C/O[C@@]2(C)Oc3c(C)c(O)c4c(O)c(c(/C=N/N5CCN(C)CC5)c(O)c4c3C2=O)NC(=O)/C(C)=C\C=C\[C@H](C)[C@H](O)[C@@H](C)[C@@H](O)[C@@H](C)[C@H](OC(C)=O)[C@@H]1C [RIFAMPIN] | 0.25 µg/mL (≈ 0.304 µM) | 0.25 µg/mL (≈ 0.304 µM) | 0.25 µg/mL (≈ 0.304 µM) | 4 µg/mL (≈ 4.86 µM) | 62.5 µg/mL (≈ 75.9 µM) |  |  | 
C[C@@H]1OC(=O)/C=C/[C@@H](O)CC[C@H](C)OC(=O)CC[C@@H]1O | 125 µg/mL (≈ 437 µM) | 125 µg/mL (≈ 437 µM) | 4 µg/mL (≈ 14 µM) | 125 µg/mL (≈ 437 µM) | 125 µg/mL (≈ 437 µM) |  |  | 
CC[C@H]1OC(=O)[C@H](C)[C@@H](O[C@H]2C[C@@](C)(OC)[C@@H](O)[C@H](C)O2)[C@H](C)[C@@H](O[C@@H]2O[C@H](C)C[C@H](N(C)C)[C@H]2O)[C@](C)(OC)C[C@@H](C)C(=O)[C@H](C)[C@@H](O)[C@]1(C)O [CLARITHROMYCIN] | 0.25 µg/mL (≈ 0.334 µM) | > 250 µg/mL | 0.25 µg/mL (≈ 0.334 µM) | 16 µg/mL (≈ 21.4 µM) | 125 µg/mL (≈ 167 µM) |  |  | 
CC1(C)S[C@@H]2[C@H](NC(=O)Cc3ccccc3)C(=O)N2[C@H]1C(=O)O [PENICILLIN G] | 0.25 µg/mL (≈ 0.748 µM) | 0.5 µg/mL (≈ 1.5 µM) | 0.25 µg/mL (≈ 0.748 µM) | 16 µg/mL (≈ 47.8 µM) | > 250 µg/mL |  |  | 
CC[C@H]1OC(=O)[C@H](C)[C@@H](O[C@H]2C[C@@](C)(OC)[C@@H](O)[C@H](C)O2)[C@H](C)[C@@H](O[C@@H]2O[C@H](C)C[C@H](N(C)C)[C@H]2O)[C@](C)(O)C[C@@H](C)C(=O)[C@H](C)[C@@H](O)[C@]1(C)O [ERYTHROMYCIN] | 0.25 µg/mL (≈ 0.341 µM) | 0.25 µg/mL (≈ 0.341 µM) | 0.5 µg/mL (≈ 0.681 µM) | 16 µg/mL (≈ 21.8 µM) | 62.5 µg/mL (≈ 85.2 µM) |  |  | 
